# Laboratory results published in patent US20060211697A1, “2-(2 Or 4-substituted aryloxy)-phenol derivatives as antibacterial agents” (priority 2004, published 2006).
# Like-named read-outs stand apart in the source and are kept apart here.
# Legend:
# [1] = system: S. aureus 29213; assay: MIC, broth dilution method, S. aureus; assay type: cell-based
# Method: (§1) Minimum Inhibition Concentration (MIC), Broth Dilution Method:
# (§2) The compounds of the present invention were tested against an assortment of Gram positive and Gram negative organisms using standard microtitration techniques well known to those skilled in the art. Cultures of bacteria are initially brought up from the freezer by streaking a loopful onto agar plates under the appropriate conditions. For instance bacterial stocks are streaked onto chocolate agar and then incubated for 18 hours at 35-37° C. in a 5% CO2 incubator. Five to ten colonies are picked from the chocolate agar plate for subculture to Brain-Heart infusion (BHI) broth, Mueller Hinton broth, or BHI containing 4% serum and incubated under the appropriate conditions. The ability of the test compound to act as an antimicrobial is determined by the ability to inhibit bacterial growth in vitro. The optical density of the culture of organisms in the presence of an active compound is compared to the optical density of the same organism untreated. The activity of the compounds is described as either negative or the lowest concentration inhibiting growth (Minimum Inhibitory Concentration [MIC]).
# [2] = system: E. coli 43888; assay: MIC, broth dilution method, E. coli; assay type: cell-based
# Method: as §1, §2
# [3] = system: S. pneumoniae 11733; assay: MIC, broth dilution method, S. pneumoniae; assay type: cell-based
# Method: as §1, §2
# [4] = system: H. influenzae 43095; assay: MIC, broth dilution method, H. influenzae; assay type: cell-based
# Method: as §1, §2
# [5] = Staphylococcus aureus, 29213, Gram-positive bacteria, in vitro, broth dilution, read-out: MIC S. aureus 29213
# [6] = Escherichia coli, 43888, Gram-negative bacteria, in vitro, broth dilution, read-out: MIC E. coli 43888
# [7] = Streptococcus pneumoniae, 11733, Gram-positive bacteria, in vitro, broth dilution, read-out: MIC S. pneumoniae 11733
# [8] = Haemophilus influenzae, 43095, Gram-negative bacteria, in vitro, broth dilution, read-out: MIC H. influenzae 43095
SMILES,melting point,"MIC [1, 5]","MIC [2, 6]","MIC [3, 7]","MIC [4, 8]",other results
Cc1ccc(Oc2ccc(-n3cccc3)cc2)c(O)c1,95 to 96 °C,–,–,–,–,–
Cc1ccc(Oc2ccc(-c3ccsc3)cc2O)c(O)c1,143 to 145 °C,–,–,–,–,–
N/C(=N\O)c1ccccc1Oc1ccc(F)cc1O,64 to 65 °C,–,–,–,–,–
Cc1ccc(Oc2ccccc2/C(N)=N/O)c(O)c1,85 to 87 °C,–,–,–,–,–
CCOC(=O)c1nc(-c2ccccc2Oc2ccc(F)cc2O)no1,82 to 83 °C,–,–,–,–,–
O=C(O)c1nc(-c2ccccc2Oc2ccc(F)cc2O)no1,127 to 128 °C,–,–,–,–,–
Cc1ccc(Oc2ccc([N+](=O)[O-])cc2-c2ncon2)c(O)c1,159 to 160 °C,–,–,–,–,–
Cc1ccc(Oc2ccccc2-c2noc(=O)[nH]2)c(O)c1,213 to 214 °C,–,–,–,–,–
Cc1ccc(Oc2ccc(-c3noc(=O)[nH]3)cc2)c(O)c1,195 to 198 °C,–,–,–,–,–
COC(=O)C1CSC(c2ccc(Oc3ccc(C)cc3O)cc2)N1 (stereo not shown),134 to 135 °C,–,–,–,–,–
COC(=O)c1cn(-c2ccccc2Oc2ccc(C)cc2O)nn1,153 to 155 °C,–,–,–,–,–
COC(=O)c1cn(-c2ccc(Oc3ccc(C)cc3O)cc2)nn1,148 to 151 °C,–,–,–,–,–
CCOC(=O)c1cnn(-c2ccccc2Oc2ccc(C)cc2O)c1,118 to 119 °C,–,–,–,–,–
"Oc1ccccc1Oc1ccc(-c2ccsc2)cc1O [Example 1, 2-(2-Hydroxy-phenoxy)-5-(thiophen-3-yl)-phenol]",114 to 116 °C,4 µg/mL,15.7 µg/mL,2 µg/mL,2 µg/mL,–
"Cc1ccc(Oc2ccc(-c3cccs3)cc2O)c(O)c1 [Example 3, 2-(2-Hydroxy-4-methyl-phenoxy)-5-(thiophen-2-yl)-phenol]",91 to 92 °C,4 µg/mL,15.7 µg/mL,1 µg/mL,4 µg/mL,–
"Cc1ccc(Oc2ccc(-c3ccco3)cc2O)c(O)c1 [Example 4, 2-(2-Hydroxy-4-methyl-phenoxy)-5-(furan-2-yl)-phenol]",–,2 µg/mL,0.5 µg/mL,1 µg/mL,7.9 µg/mL,–
"Cc1ccc(Oc2ccc(C3NCCS3)cc2)c(O)c1 (stereo not shown) [Example 5, 5-Methyl-2-[4-(thiazolidin-2-yl)-phenoxy]-phenol]",197 to 199 °C,0.5 µg/mL,4 µg/mL,4 µg/mL,0.125 µg/mL,–
"Cc1ccc(Oc2ccc(C3NC(C(=O)O)CS3)cc2)c(O)c1 (stereo not shown) [Example 7, 2-[4-(2-Hydroxy-4-methyl-phenoxy)-phenyl]-thiazolidine-4-carboxylic acid]",172 to 174 °C (dec.),0.25 µg/mL,4 µg/mL,1 µg/mL,1 µg/mL,–
"Oc1cc(F)ccc1Oc1ccc(-c2ccco2)cc1O [Example 12, 5-(Furan-2-yl)-2-(4-fluoro-2-hydroxy-phenoxy)-phenol]",–,4 µg/mL,2 µg/mL,0.5 µg/mL,7.9 µg/mL,–
"Cc1ccc(Oc2ccc([N+](=O)[O-])cc2-c2nnn[nH]2)c(O)c1 [Example 16, 5-Methyl-2-[4-nitro-2-(1H-tetrazol-5-yl)-phenoxy]-phenol and 5-methyl-2-[4-nitro-2-(2H-tetrazol-5-yl)-phenoxy]-phenol]",–,2 µg/mL,31.3 µg/mL,7.9 µg/mL,31.3 µg/mL,–

SMILES,melting point,"MIC [1, 5]","MIC [2, 6]","MIC [3, 7]","MIC [4, 8]",other results
"Oc1cc(F)ccc1Oc1ccc(Cl)cc1-c1nnn[nH]1 [Example 18, 2-[4-Chloro-2-(1H-tetrazol-5-yl)-phenoxy]-5-fluoro-phenol and 2-[4-chloro-2-(2H-tetrazol-5-yl)-phenoxy]-5-fluoro-phenol]",–,0.125 µg/mL,7.9 µg/mL,0.25 µg/mL,4 µg/mL,–
"Oc1cc(Cl)ccc1Oc1ccc(Cl)cc1-c1nnn[nH]1 [Example 19, 5-chloro-2-[4-Chloro-2-(1H-tetrazol-5-yl)-phenoxy]-phenol and 5-chloro-2-[4-chloro-2-(2H-tetrazol-5-yl)-phenoxy]-phenol]",–,0.125 µg/mL,4 µg/mL,2 µg/mL,2 µg/mL,–
"Oc1ccccc1Oc1ccccc1-c1nnn[nH]1 [Example 20, 2-[2-(1H-Tetrazol-5-yl)-phenoxy]-phenol and 2-[2-(2H-tetrazol-5-yl)-phenoxy]-phenol]",–,0.25 µg/mL,2 µg/mL,4 µg/mL,4 µg/mL,–
"Cc1ccc(Oc2ccc(-c3nnc(N)o3)cc2)c(O)c1 [Example 24, 2-[4-(5-Amino-[1,3,4]oxadiazol-2-yl)-phenoxy]-5-methyl-phenol]",–,0.8 µg/mL,6.2 µg/mL,12.5 µg/mL,12.5 µg/mL,–
"Cc1ccc(Oc2ccc(/C(N)=N/O)cc2)c(O)c1 [Example 30, N-Hydroxy-4-(2-hydroxy-4-methyl-phenoxy)-benzamidine]",–,4 µg/mL,0.5 µg/mL,62.5 µg/mL,31.3 µg/mL,–
"Cc1ccc(Oc2ccccc2-c2noc(C(=O)O)n2)c(O)c1 [Example 37, 3-[2-(2-Hydroxy-4-methyl-phenoxy)-phenyl]-[1,2,4]oxadiazole-5-carboxylic acid]",–,0.125 µg/mL,0.5 µg/mL,8 µg/mL,0.5 µg/mL,–
"Cc1ccc(Oc2ccc([N+](=O)[O-])cc2-c2noc(C(=O)O)n2)c(O)c1 [Example 39, 3-[2-(2-Hydroxy-4-methyl-phenoxy)-5-nitro-phenyl]-[1,2,4]oxadiazole-5-carboxylic acid]",–,0.5 µg/mL,4 µg/mL,> 32 µg/mL,8 µg/mL,–
"Cc1ccc(Oc2ccc(-c3noc(C(=O)O)n3)cc2)c(O)c1 [Example 40, 3-[4-(2-Hydroxy-4-methyl-phenoxy)-phenyl]-[1,2,4]oxadiazole-5-carboxylic acid]",–,4 µg/mL,8 µg/mL,16 µg/mL,4 µg/mL,–
"Oc1cc(F)ccc1Oc1ccccc1-c1ncon1 [Example 42, 5-Fluoro-2-(2-[1,2,4]oxadiazol-3-yl-phenoxy)-phenol]",–,1 µg/mL,1 µg/mL,> 32 µg/mL,1 µg/mL,–
"Cc1ccc(Oc2ccccc2-c2ncon2)c(O)c1 [Example 43, 5-Methyl-2-(2-[1,2,4]oxadiazol-3-yl-phenoxy)-phenol]",–,0.5 µg/mL,0.5 µg/mL,15.7 µg/mL,4 µg/mL,–
"Oc1cc(F)ccc1Oc1ccc(Cl)cc1-c1ncon1 [Example 44, 2-(4-Chloro-2-[1,2,4]oxadiazol-3-yl-phenoxy)-5-fluoro-phenol]",–,0.5 µg/mL,2 µg/mL,> 32 µg/mL,2 µg/mL,–
"Cc1ccc(Oc2ccc(-c3ncon3)cc2)c(O)c1 [Example 45, 5-Methyl-2-(4-[1,2,4]oxadiazol-3-yl-phenoxy)-phenol]",–,0.5 µg/mL,1 µg/mL,1 µg/mL,4 µg/mL,–
"CCOC(=O)c1nc(-c2ccccc2Oc2ccc(Cl)cc2O)no1 [Example 51, 3-[2-(4-Chloro-2-hydroxy-phenoxy)-phenyl]-[1,2,4]oxadiazole-5-carboxylic acid ethyl ester]",–,0.4 µg/mL,6.2 µg/mL,> 25 µg/mL,3.1 µg/mL,–
"O=C(O)c1nc(-c2ccccc2Oc2ccc(Cl)cc2O)no1 [Example 54, 3-[2-(4-Chloro-2-hydroxy-phenoxy)-phenyl]-[1,2,4]oxadiazole-5-carboxylic acid]",–,0.05 µg/mL,0.2 µg/mL,3.1 µg/mL,0.2 µg/mL,–
"Oc1cc(Cl)ccc1Oc1ccccc1-c1ncon1 [Example 57, 5-Chloro-2-(2-[1,2,4]oxadiazol-3-yl-phenoxy)-phenol]",–,0.05 µg/mL,0.05 µg/mL,6.2 µg/mL,0.05 µg/mL,–
"Cc1ccc(Oc2ccccc2NN)c(O)c1 [Example 66, 2-(2-Hydrazino-phenoxy)-5-methyl-phenol]",–,–,–,–,–,"MIC ([1]; Staphylococcus aureus, 29213, read-out: MIC S. aureus 29213): 0.1 µg/mL; MIC ([2]; Escherichia coli, 43888, read-out: MIC E. coli 43888): 0.8 µg/mL; MIC ([3]; Streptococcus pneumoniae, 11733, read-out: MIC S. pneumoniae 11733): 3.1 µg/mL; MIC ([4]; Haemophilus influenzae, 43095, read-out: MIC H. influenzae 43095): 0.1 µg/mL"
"Cc1ccc(Oc2ccc(NN)cc2)c(O)c1 [Example 67, 2-(4-Hydrazino-phenoxy)-5-methyl-phenol]",–,0.1 µg/mL,0.4 µg/mL,6.2 µg/mL,0.1 µg/mL,–
"CCOC(=O)c1cnn(-c2ccc(Oc3ccc(C)cc3O)cc2)c1 [Example 69, 1-[4-(2-Hydroxy-4-methyl-phenoxy)-phenyl]-1H-pyrazole-4-carboxylic acid ethyl ester]",–,0.2 µg/mL,1.6 µg/mL,> 25 µg/mL,> 25 µg/mL,–
"Cc1ccc(Oc2ccc(-n3cc(C(=O)O)cn3)cc2)c(O)c1 [Example 71, 1-[4-(2-Hydroxy-4-methyl-phenoxy)-phenyl]-1H-pyrazole-4-carboxylic acid]",–,3.1 µg/mL,> 25 µg/mL,12.5 µg/mL,25 µg/mL,–
